Measured values taken from US20230159620A1, “COMPOSITIONS AND METHODS OF TREATMENT FOR VASCULAR DISEASES AND THROMBOSIS” (Washington University, priority 2021, published 2023).

Assays:
Integrin signaling = Integrin signaling western blot, THP-1 cells; type: cell-based, human
Method: Cells were resuspended in serum-free media (SFM) and incubated with gentle agitation to prevent cell attachment and reduce basal signaling. […] Cells were briefly centrifuged to the bottom of the wells and incubated for 8 min (for VSMCs) or 15 min (for THP-1 cells) before lysis with cell lysis buffer (#9803, Cell Signaling Technologies) containing a cocktail of protease and phosphatase inhibitors. Western blots were performed by standard techniques, as briefly follows. Protein content was determined using a bicinchoninic acid assay with BSA standards (#23225, Pierce™ BCA Protein Assay Kit). Cell lysates were then reduced with DTT in lithium dodecyl sulfate sample buffer (#NP0007, Invitrogen). Equal protein amounts were added to polyacrylamide gels (#4561086, BioRad) and electrophoresed prior to transferring to a nitrocellulose or polyvinylidene fluoride membrane (#1620260, BioRad). Membranes were blocked in 5% BSA/Tris-Buffered Saline with tween 20 for 30 min. The indicated primary antibodies were incubated with the pre-blocked membranes for overnight at 4° C. Membranes were washed with Tris-Buffered Saline with tween 20, probed with fluorescent secondary antibodies, and imaged. β-actin or β-tubulin served as a loading control.

VSMCs = experiment: VSMC adhesion assay; type: cell-based, mouse; settings: immobilized protein
Description: Plates were ultraviolet (UV) sterilized before adding cells. […] Efficient Itgα9 knockdown was confirmed by qPCR.

With “SVEP1: recombinant murine SVEP1 extracellular matrix protein with Myc and poly-histidine tag, expressed in 293F cells” the integrin signaling (Integrin signaling) was “activated” and the “adhesion of VSMCs” value (VSMCs) was “adhere to SVEP1 in a dose-dependent manner”.
